This note sets out measurements from patent publication US20240270809A1, “ORAL GLP RECEPTOR AGONISTS” (priority 2020, published 2024).

The target of one test is T1, human GLP2 receptor (Homo sapiens, UniProt O95838).
T1 construct: expressed in transfected cells; host or cells: HEK cells, BacMam virus transduction
T1 sequence (O95838 1-553): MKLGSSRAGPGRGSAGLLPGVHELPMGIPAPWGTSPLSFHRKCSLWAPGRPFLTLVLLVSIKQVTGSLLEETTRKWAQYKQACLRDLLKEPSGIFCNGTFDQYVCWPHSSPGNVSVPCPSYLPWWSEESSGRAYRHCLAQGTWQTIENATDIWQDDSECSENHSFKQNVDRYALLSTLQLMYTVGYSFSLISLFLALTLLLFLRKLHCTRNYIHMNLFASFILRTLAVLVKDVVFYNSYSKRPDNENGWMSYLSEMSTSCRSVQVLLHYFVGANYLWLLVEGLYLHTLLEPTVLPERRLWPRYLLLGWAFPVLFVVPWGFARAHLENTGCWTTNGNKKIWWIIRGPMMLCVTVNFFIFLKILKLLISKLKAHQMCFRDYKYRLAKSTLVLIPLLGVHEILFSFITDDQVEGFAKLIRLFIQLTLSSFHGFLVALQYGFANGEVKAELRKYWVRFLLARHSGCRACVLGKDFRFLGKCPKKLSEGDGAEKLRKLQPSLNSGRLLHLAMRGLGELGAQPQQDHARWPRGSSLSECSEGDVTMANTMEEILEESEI
Nature of the test: cAMP accumulation assay, functional agonism of human GLP2 receptor. The settings on record: HEK cells infected with human GLP2 receptor BacMam virus, HTRF cAMP; for Emax: HEK293, read-out: Human GLP-2R agonist cAMP Emax; for EC50: read-out: Human GLP-2R agonist cAMP pEC50 (converted). The format is cell-based. As to the method: (§1) CAMP production upon agonist stimulation of human GLP2 or GLP1 receptor was assessed utilizing HiRange cAMP kit (Cisbio). In brief, HEK cells were infected with either human GLP2 or GLP1 receptor BacMam virus for 24 hours and frozen for later use in the assay. […] Cells were prepared in the assay buffer (HBSS (Lonza) supplemented with 0.5 mM IBMX (Tocris)). After 45 min incubation at 37° C., the reaction was stopped by addition of the HTRF detection reagents in the lysis buffer provided in the kit.
(In general: Changes in cAMP serve as a functional read-out for many G protein-coupled receptors.)

The target of a further test is T2, human GLP1 receptor (Homo sapiens, UniProt P43220).
T2 construct: expressed in transfected cells; host or cells: HEK cells, BacMam virus transduction
T2 sequence (P43220 24-463): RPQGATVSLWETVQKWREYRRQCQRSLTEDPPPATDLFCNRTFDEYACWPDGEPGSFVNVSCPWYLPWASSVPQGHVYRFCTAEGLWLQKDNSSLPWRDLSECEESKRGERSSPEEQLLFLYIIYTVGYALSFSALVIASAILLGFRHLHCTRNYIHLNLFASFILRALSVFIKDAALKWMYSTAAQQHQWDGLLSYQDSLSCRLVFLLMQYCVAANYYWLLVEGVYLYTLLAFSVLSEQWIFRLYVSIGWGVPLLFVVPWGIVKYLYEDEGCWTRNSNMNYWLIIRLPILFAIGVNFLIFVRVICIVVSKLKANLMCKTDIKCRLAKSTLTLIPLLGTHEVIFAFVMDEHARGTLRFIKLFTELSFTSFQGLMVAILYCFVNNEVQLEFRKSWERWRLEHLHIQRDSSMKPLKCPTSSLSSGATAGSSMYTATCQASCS
Put plainly: cAMP accumulation assay, functional agonism of human GLP1 receptor. The settings on record: HEK cells infected with human GLP1 receptor BacMam virus, HTRF cAMP; for Emax: HEK293, read-out: Human GLP-1R agonist cAMP Emax; for EC50: read-out: Human GLP-1R agonist cAMP pEC50 (converted). The format is cell-based. Here is the method:
as §1

Positions of bridges follow the written chain, without caps; N, C: chain ends. Non-standard residues stand in square brackets, D forms with d. Residues, ends and D or L forms follow the SMILES beside them. *: point of attachment. Malonyl(2,2-Me2,histaminyl) = CC(C)(C(=O)NCCc1cnc[nH]1)C(=O)*; Ala(1H-tetrazol-5-yl) = N[C@@H](Cc1nnn[nH]1)C(=O)O; αMePhe(2-F) = C[C@](N)(Cc1ccccc1F)C(=O)O; αMeL = CC(C)C[C@](C)(N)C(=O)O; Nle = CCCC[C@H](N)C(=O)O; Aib = CC(C)(N)C(=O)O

Broadly, the Emax is the size of the effect at its maximum, as opposed to the concentration needed. For the molecule `CCCC[C@H](NC(=O)[C@H](CCC(=O)O)NC(=O)[C@@H]1CC(=O)NCCCC[C@H](NC(=O)[C@H](CCC(=O)O)NC(=O)C(C)(C)NC(=O)[C@@H](N)Cc2c[nH]cn2)C(=O)N[C@@H](CO)C(=O)N[C@@](C)(Cc2ccccc2F)C(=O)N[C@@H](CO)C(=O)N1)C(=O)N[C@H](Cc1ccccc1)C(=O)N[C@H](C(=O)N[C@@](C)(CC(C)C)C(=O)N[C@@H](CC(C)C)C(=O)N[C@@H](CC(=O)O)C(=O)N[C@H]1CCC(=O)NCCCC[C@@H](C(=O)N[C@@H](CC(=O)O)C(=O)N[C@@H](Cc2ccccc2)C(=O)N[C@H](C(=O)N[C@H]2CCC(=O)NCCCC[C@@H](C(=O)N[C@H](C(=O)N[C@@H](CCCCN)C(N)=O)[C@@H](C)O)NC(=O)[C@H]([C@@H](C)CC)NC(=O)[C@H](CC(C)C)NC(=O)[C@H](Cc3c[nH]c4ccccc34)NC2=O)[C@@H](C)CC)NC(=O)[C@H](C)NC(=O)[C@H](C)NC(=O)[C@H](CCCCN)NC1=O)[C@@H](C)O` [Example 32] (H-H[Aib]EKS[αMePhe(2-F)]SDE[Nle][dF]T[αMeL]LDEKAAKDFIEWLIKTK-NH2; lactam 4-8, 16-20, 24-28 (inferred); C-terminus assumed), the Emax on human GLP2 receptor was 91.3%; on human GLP1 receptor it was 97.8%. Moreover, the EC50 on human GLP2 receptor is 0.794 nM; at human GLP1 receptor it was 0.0251 nM.

Turning to `CCCC[C@H](NC(=O)[C@H](CCC(=O)O)NC(=O)[C@@H]1CC(=O)NCCCC[C@H](NC(=O)[C@H](CC(=O)O)NC(=O)C(C)(C)C(=O)NCCc2c[nH]cn2)C(=O)N[C@@H](CO)C(=O)N[C@@](C)(Cc2ccccc2F)C(=O)N[C@@H](CO)C(=O)N1)C(=O)N[C@H](Cc1ccccc1)C(=O)N[C@H](C(=O)N[C@@](C)(CC(C)C)C(=O)N[C@@H](CC(C)C)C(=O)N[C@@H](CC(=O)O)C(=O)N[C@H]1CCC(=O)NCCCC[C@@H](C(=O)N[C@@H](CC(=O)O)C(=O)N[C@@H](Cc2ccccc2)C(=O)N[C@H](C(=O)N[C@H]2CCC(=O)NCCCC[C@@H](C(=O)N[C@H](C(=O)N[C@@H](CCCCN)C(N)=O)[C@@H](C)O)NC(=O)[C@H]([C@@H](C)CC)NC(=O)[C@H](CC(C)C)NC(=O)[C@H](Cc3c[nH]c4ccccc34)NC2=O)[C@@H](C)CC)NC(=O)[C@H](C)NC(=O)[C@H](C)NC(=O)[C@H](CCCCN)NC1=O)[C@@H](C)O` [Example 33] ({Malonyl(2,2-Me2,histaminyl)}-DKS[αMePhe(2-F)]SDE[Nle][dF]T[αMeL]LDEKAAKDFIEWLIKTK-NH2; lactam 2-6, 14-18, 22-26; C-terminus assumed), the Emax at human GLP2 receptor is 102%; on human GLP1 receptor, 98.1%. For the same molecule, the EC50 was 0.0316 nM on human GLP2 receptor and 0.0251 nM at human GLP1 receptor.

On to `CCCC[C@H](NC(=O)[C@H](CCC(=O)O)NC(=O)[C@@H]1CC(=O)NCCCC[C@H](NC(=O)[C@H](Cc2nn[nH]n2)NC(=O)C(C)(C)C(=O)NCCc2c[nH]cn2)C(=O)N[C@@H](CO)C(=O)N[C@@H](Cc2ccccc2)C(=O)N[C@@H](CO)C(=O)N1)C(=O)N[C@H](Cc1ccccc1)C(=O)N[C@H]1CCCCNC(=O)C[C@@H](C(=O)N[C@@H](CCCCN)C(=O)N[C@@H](C)C(=O)N[C@@H](C)C(=O)NC(C)(C)C(=O)N[C@@H](CC(=O)O)C(=O)N[C@@H](Cc2ccccc2)C(=O)N[C@H](C(=O)N[C@H]2CCC(=O)NCCCC[C@@H](C(=O)N[C@H]3CCC(=O)NCCCC[C@@H](C(N)=O)NC(=O)[C@H]([C@@H](C)O)NC(=O)[C@H]([C@@H](C)CC)NC(=O)[C@H](CCCCN)NC3=O)NC(=O)[C@H]([C@@H](C)CC)NC(=O)[C@H](CC(C)C)NC(=O)[C@H](Cc3c[nH]c4ccccc34)NC2=O)[C@@H](C)CC)NC(=O)[C@H](CC(=O)O)NC(=O)[C@H](CC(C)C)NC(=O)[C@H]([C@@H](C)CC)NC1=O` [Example 42] ({Malonyl(2,2-Me2,histaminyl)}-[Ala(1H-tetrazol-5-yl)]KSFSDE[Nle][dF]KILDDKAA[Aib]DFIEWLIKEKITK-NH2; lactam 2-6, 10-14, 22-26, 27-31; C-terminus assumed), for which, at human GLP2 receptor, the Emax came to 96.4% and the EC50 is 0.398 nM. On human GLP1 receptor, the Emax worked out at 94.1% and the EC50 is 0.2 nM.

On to `CCCC[C@H](NC(=O)[C@H](CCC(=O)O)NC(=O)[C@@H]1CC(=O)NCCCC[C@H](NC(=O)[C@H](Cc2nn[nH]n2)NC(=O)C(C)(C)C(=O)NCCc2c[nH]cn2)C(=O)N[C@@H](CO)C(=O)N[C@@H](Cc2ccccc2)C(=O)N[C@@H](CO)C(=O)N1)C(=O)N[C@H](Cc1ccccc1)C(=O)N[C@H](C(=O)N[C@@](C)(CC(C)C)C(=O)N[C@@H](CC(C)C)C(=O)N[C@@H](CC(=O)O)C(=O)N[C@H]1CCC(=O)NCCCC[C@@H](C(=O)N[C@@H](CC(=O)O)C(=O)N[C@@H](Cc2ccccc2)C(=O)N[C@H](C(=O)N[C@H]2CCC(=O)NCCCC[C@@H](C(=O)N[C@H](C(=O)N[C@H]3CCC(=O)NCCCC[C@@H](C(N)=O)NC(=O)[C@H]([C@@H](C)O)NC(=O)[C@H]([C@@H](C)CC)NC3=O)[C@@H](C)O)NC(=O)[C@H]([C@@H](C)CC)NC(=O)[C@H](CC(C)C)NC(=O)[C@H](Cc3c[nH]c4ccccc34)NC2=O)[C@@H](C)CC)NC(=O)[C@H](C)NC(=O)[C@H](C)NC(=O)[C@H](CCCCN)NC1=O)[C@@H](C)O` [Example 44] ({Malonyl(2,2-Me2,histaminyl)}-[Ala(1H-tetrazol-5-yl)]KSFSDE[Nle][dF]T[αMeL]LDEKAAKDFIEWLIKTEITK-NH2; lactam 2-6, 14-18, 22-26, 28-31; C-terminus assumed), for which, at human GLP2 receptor, the Emax was 104% and the EC50 was 0.631 nM. At human GLP1 receptor, the Emax came out at 96.1% and the EC50 is 0.2 nM.

Turning to `CCCC[C@H](NC(=O)[C@H](CCC(=O)O)NC(=O)[C@@H]1CC(=O)NCCCC[C@H](NC(=O)[C@H](CC(=O)O)NC(=O)C(C)(C)NC(=O)[C@@H](N)Cc2c[nH]cn2)C(=O)N[C@@H](CO)C(=O)N[C@@H](Cc2ccccc2)C(=O)N[C@@H](CO)C(=O)N1)C(=O)N[C@H](Cc1ccccc1)C(=O)N[C@H]1CCCCNC(=O)C[C@@H](C(=O)N[C@@H](CCCCN)C(=O)N[C@@H](C)C(=O)N[C@@H](C)C(=O)NC(C)(C)C(=O)N[C@@H](CC(=O)O)C(=O)N[C@@H](Cc2ccccc2)C(=O)N[C@H](C(=O)N[C@H]2CCC(=O)NCCCC[C@@H](C(=O)N[C@H]3CCC(=O)NCCCC[C@@H](C(N)=O)NC(=O)[C@H]([C@@H](C)O)NC(=O)[C@H]([C@@H](C)CC)NC(=O)[C@H](CCCCN)NC3=O)NC(=O)[C@H]([C@@H](C)CC)NC(=O)[C@H](CC(C)C)NC(=O)[C@H](Cc3c[nH]c4ccccc34)NC2=O)[C@@H](C)CC)NC(=O)[C@H](CC(=O)O)NC(=O)[C@H](CC(C)C)NC(=O)[C@H]([C@@H](C)CC)NC1=O` [Example 47] (H-H[Aib]DKSFSDE[Nle][dF]KILDDKAA[Aib]DFIEWLIKEKITK-NH2; lactam 4-8, 12-16, 24-28, 29-33; N-terminus and C-terminus assumed), on human GLP2 receptor, the Emax came out at 104% and the EC50 was 0.158 nM. For the same molecule, at human GLP1 receptor, the Emax is 93.6% and the EC50 is 0.316 nM.

For the molecule `CCCC[C@@H]1NC(=O)[C@H](CCC(=O)O)NC(=O)[C@@H](NC(=O)[C@H](CO)NC(=O)[C@](C)(Cc2ccccc2F)NC(=O)[C@H](CO)NC(=O)[C@@H](C)NC(=O)[C@H](CCC(N)=O)NC(=O)C(C)(C)C(=O)NCCc2c[nH]cn2)CCCCNC(=O)C[C@@H](C(=O)N[C@H](C(=O)N[C@@H](CC(C)C)C(=O)N[C@@H](CC(=O)O)C(=O)N[C@H]2CCC(=O)NCCCC[C@@H](C(=O)N[C@@H](CC(=O)O)C(=O)N[C@@H](Cc3ccccc3)C(=O)N[C@H](C(=O)N[C@H]3CCCCNC(=O)C[C@@H](C(=O)N[C@H]4CCC(=O)NCCCC[C@@H](C(N)=O)NC(=O)[C@H]([C@@H](C)O)NC(=O)[C@H]([C@@H](C)CC)NC(=O)[C@H](CCCCN)NC4=O)NC(=O)[C@H]([C@@H](C)CC)NC(=O)[C@H](CC(C)C)NC(=O)[C@H](Cc4c[nH]c5ccccc45)NC3=O)[C@@H](C)CC)NC(=O)[C@H](C)NC(=O)[C@H](C)NC(=O)[C@H](CCCCN)NC2=O)[C@@H](C)CC)NC(=O)[C@@H](Cc2ccccc2)NC1=O` [Example 54] ({Malonyl(2,2-Me2,histaminyl)}-Q[dA]S[αMePhe(2-F)]SKE[Nle][dF]DILDEKAAKDFIKWLIDEKITK-NH2; lactam 6-10, 14-18, 22-26, 27-31 (inferred); C-terminus assumed), on human GLP2 receptor, the Emax was 101% and the EC50 was 0.0316 nM. For the same molecule, on human GLP1 receptor, the Emax turned out to be 88.8% and the EC50 was 0.631 nM.
